# Reference: patent US20130217085A1, “METHODS FOR IMPROVING FERMENTATION YIELD OF POLYUNSATURATED FATTY ACIDS” (NANJING UNIVERSITY OF TECHNOLOGY, priority 2010, published 2013)
# System: Schizochytrium limacinum HX-308
# Assay: Shake-flask fermentation of Schizochytrium limacinum HX-308 with exogenous compatible solute added to the fermentation medium (fatty acid composition, DHA yield, biomass)
# Assay type: cell-based
# Description: The detection method of the following Examples is the same as that in the application titled “Schizochytrium limacinum and method of production of DHA oil using the same” (Application No. 200910033869.5) The strain is Schizochytrium limacinum HX-308 with deposit number CCTCC No. M209059. Seed medium: D-glucose 40 g/L, yeast extract 2 g/L, sodium glutamate 10 g/L, MgCl2 3 g/L, CaCl2·2H2O 1 g/L, KH2PO4 4 g/L, KCl 2 g/L, NaCl 15 g/L, MgSO4·7H2O 5 g/L, FeCl3 0.1 g/L. (See “A Schizochytrium limacinum and method of production of DHA oil using the same” (Application No. 200910033869.5)). Fermentation medium: D-glucose 40 g/L, yeast extract 2 g/L, sodium glutamate 10 g/L, MgCl2 3 g/L, (NH4)2SO4 6 g/L, KH2PO4 4 g/L, KCl 2 g/L, NaCl 15 g/L, MgSO4·7H2O 5 g/L, FeCl3 0.1 g/L. (See “A Schizochytrium limacinum and method of production of DHA oil using the same” (Application No. 200910033869.5)). Cultural method: strain was inoculated into seed medium with inoculation amount of 5% (v/v), cultured in a 500 mL shake flask for 24 h to log phase under 170 r at 25° C., and inoculated into the fermentation medium with addition of a certain amount of glycine betaine (such as 10 mmol/L, 40 mmol/L, 70 mmol/L, 100 mmol/L) in inoculation amount of 9% (v/v) for culturing; fermentation ceased when glucose reached an amount of 0 g/L. The results are shown in Table 1. The strain is Schizochytrium limacinum HX-308 with deposit number CCTCC No. M209059. Seed medium: D-glucose 40 g/L, yeast extract 2 g/L, sodium glutamate 10 g/L, MgCl2 3 g/L, CaCl2·2H2O 1 g/L, KH2PO4 4 g/L, KCl 2 g/L, NaCl 15 g/L, MgSO4·7H2O 5 g/L, FeCl3 0.1 g/L. Fermentation medium: D-glucose 40 g/L, yeast extract 2 g/L, sodium glutamate 10 g/L, MgCl2 3 g/L, (NH4)2SO4 6 g/L, KH2PO4 4 g/L, KCl 2 g/L, NaCl 15 g/L, MgSO4·7H2O 5 g/L, FeCl3 0.1 g/L. Cultural method: the strain was inoculated into seed medium with inoculation amount of 5% (v/v), cultured in a 500 mL shake flask for 24 h to log phase under 170 r at 25° C., and inoculated into the fermentation medium with addition of a certain amount of trehalose (such as 10 mmol/L, 40 mmol/L, 80 mmol/L) in inoculation amount of 9% (v/v); fermentation ceased when glucose reached an amount of 0 g/L. The results are shown in Table 2.
# [1] = exogenous glycine betaine 10 mM
# [2] = exogenous glycine betaine 40 mM
# [3] = exogenous glycine betaine 70 mM
# [4] = exogenous glycine betaine 100 mM
# [5] = exogenous glycine betaine 200 mM
structure (smiles),measurement,setting,value
C[N+](C)(C)CC(=O)[O-] [glycine betaine],mass percentage of squalene,"after treatment with exogenous glycine betaine, concentration not given, increased from 0.8%",1.7%
same,DHA yield,"after treatment with exogenous glycine betaine, concentration not given, increased from 3.9 g/L",5.0 g/L
same,Total fatty acid yield,"after treatment with exogenous glycine betaine, concentration not given, increased from 8.8 g/L",10 g/L
same,mass percentage of DPA in total fatty acids,"after treatment with exogenous glycine betaine, concentration not given, increased from 11.9%",16.2%
same,mass percentage of DHA in total fatty acids,"after treatment with exogenous glycine betaine, concentration not given, increased from 44.1%",49.8%
same,ratio of DHA in the total biomass,"after treatment with exogenous glycine betaine, concentration not given, increased from 57",72 mg/g
same,mass percentage of saturated fatty acid C14: 0 in total fatty acid,"after treatment with exogenous glycine betaine, concentration not given, reduced from 10.0%",5.1%
same,mass percentage of saturated fatty acid C16: 0 in total fatty acid,"after treatment with exogenous glycine betaine, concentration not given, reduced from 24.4%",20%
same,increase of DHA yield,"after treatment with exogenous glycine betaine, versus no addition",28%
same,ARA (% total fatty acids),[1],0.5 % total fatty acids
same,Biomass,[1],69 g/L
same,C14:0 (% total fatty acids),[1],7.1 % total fatty acids
same,C16:0 (% total fatty acids),[1],21.5 % total fatty acids
same,DHA (% total fatty acids),[1],47.8 % total fatty acids
same,DHA (mg/g biomass),[1],60.5 mg/g biomass
same,DHA yield,[1],4.2 g/L
same,DPA (% total fatty acids),[1],14.5 % total fatty acids
same,EPA (% total fatty acids),[1],1.2 % total fatty acids
same,Others (% total fatty acids),[1],6.2 % total fatty acids
same,Squalene (% total fatty acids),[1],1.2 % total fatty acids
same,Total fatty acid yield,[1],8.8 g/L
same,ARA (% total fatty acids),[2],0.6 % total fatty acids
same,Biomass,[2],69 g/L
same,C14:0 (% total fatty acids),[2],5.1 % total fatty acids
same,C16:0 (% total fatty acids),[2],19.9 % total fatty acids
same,DHA (% total fatty acids),[2],49.8 % total fatty acids
same,DHA (mg/g biomass),[2],72.2 mg/g biomass
same,DHA yield,[2],5 g/L
same,DPA (% total fatty acids),[2],16.2 % total fatty acids
same,EPA (% total fatty acids),[2],1.6 % total fatty acids
same,Others (% total fatty acids),[2],5.1 % total fatty acids
same,Squalene (% total fatty acids),[2],1.7 % total fatty acids
same,Total fatty acid yield,[2],10 g/L
same,ARA (% total fatty acids),[3],0.8 % total fatty acids
same,Biomass,[3],70 g/L
same,C14:0 (% total fatty acids),[3],5.1 % total fatty acids
same,C16:0 (% total fatty acids),[3],19.5 % total fatty acids
same,DHA (% total fatty acids),[3],49.0 % total fatty acids
same,DHA (mg/g biomass),[3],67.1 mg/g biomass
same,DHA yield,[3],4.7 g/L
same,DPA (% total fatty acids),[3],16.0 % total fatty acids
same,EPA (% total fatty acids),[3],2.0 % total fatty acids
same,Others (% total fatty acids),[3],5.6 % total fatty acids
same,Squalene (% total fatty acids),[3],2.0 % total fatty acids
same,Total fatty acid yield,[3],9.6 g/L
same,ARA (% total fatty acids),[4],0.9 % total fatty acids
same,Biomass,[4],70 g/L
same,C14:0 (% total fatty acids),[4],5.2 % total fatty acids
same,C16:0 (% total fatty acids),[4],19.0 % total fatty acids
same,DHA (% total fatty acids),[4],48.1 % total fatty acids
same,DHA (mg/g biomass),[4],61.14 mg/g biomass
same,DHA yield,[4],4.3 g/L
same,DPA (% total fatty acids),[4],15.8 % total fatty acids
same,EPA (% total fatty acids),[4],2.6 % total fatty acids
same,Others (% total fatty acids),[4],6.1 % total fatty acids
same,Squalene (% total fatty acids),[4],2.3 % total fatty acids
same,Total fatty acid yield,[4],8.9 g/L
same,Biomass,[5],85 g/L
same,C14:0 (% total fatty acids),[5],2.3 % total fatty acids
same,C16:0 (% total fatty acids),[5],10.9 % total fatty acids
same,DHA (% total fatty acids),[5],34.9 % total fatty acids
same,DHA (mg/g biomass),[5],27 mg/g biomass
same,DHA yield,[5],2.3 g/L
same,DPA (% total fatty acids),[5],10.5 % total fatty acids
same,EPA (% total fatty acids),[5],8.6 % total fatty acids
same,Others (% total fatty acids),[5],30.9 % total fatty acids
same,Squalene (% total fatty acids),[5],1.9 % total fatty acids
same,Total fatty acid yield,[5],6.6 g/L
